This note sets out measurements from article PMC9727733, “Liposomal Binuclear Ir(III)–Cu(II) Coordination Compounds with Phosphino-Fluoroquinolone Conjugates for Human Prostate Carcinoma Treatment” (Inorganic Chemistry, 2022).

Format in all cases: cell-based
Experiment [1] concerns DU-145 cell line (human prostate carcinoma). As to the kind of experiment: MTT cytotoxicity assay, DU145 cells. The protocol:
(§1) The cytotoxicity of the four novel heteronuclear Ir^III–Cu^II complexes was assessed against four selected cancer cell lines: A549, MCF7, DU145, WM2664, and one normal HEK293T cell line in vitro (Table 3). IC50 values (concentration of a drug required to inhibit the growth of 50% of the cells) were assessed in two different approaches, i.e., after 24 or 24 + 48 h, using the 3-(4,5-dimethylthiazole)-2,5-diphenyltetrazolium bromide (MTT) method. Cancerous and noncancerous diseases have also been treated with the well-known drug cisplatin in the same concentration range as investigated complexes and are considered as a control. IC50 values have been determined from the plots of cell viability at various concentrations of each compound by matching appropriate dose–response curves and are presented in Table 3. […]
Bovine Serum (FBS). DU-145 cell line (human prostate carcinoma) and HEK293T cell line (human embryonic kidney) were cultured in minimum essential medium (MEM, Corning) with only 10% fetal bovine serum (FBS). Cultures were incubated at 37 °C under a humidified atmosphere containing 5% CO2.
(§2) Cells were passaged using a solution containing 0.05% trypsin and 0.5 mM EDTA. All media and other ingredients were purchased from ALAB, Poland.
(§3) Since most of the studied compounds are insoluble in aqueous media, therefore they needed to be pre-dissolved in DMSO for biological tests. Cytotoxicity was assessed by MTT assay performed according to the protocols described previously. (70) In brief, 1 × 10^4 cells per well, seeded in 96-well flat-bottom microtiter plate, were incubated with the tested complexes (1, 2, 3 and 4) at various concentrations for 24 h.
(§4) After that time, solutions of compounds were washed out, cells were washed thee time with PBS and fresh medium was applied. Each compound concentration was tested in five replicates and repeated at least three times. Determined values of IC50 (concentration of a drug required to inhibit the growth of 50% of the cells) are given as mean + S.D. (Standard Deviation). Furthermore, post-treatment survival assessment of the treated cells was analyzed under a fluorescence inverted microscope (Olympus IC51, Japan) with an excitation filter 470/20 nm. For this, cells were stained with two versatile fluorescence dyes: fluorescein […]
(§5) diacetate (FDA, 5 mg/mL) and propidium iodide (PI, 5 mg/mL) in standard conditions in the dark for 20 min. Before visualization dyes were removed and cells were washed with PBS twice. IC50 values were determined, after 72 h, from the plots of cell viability in the presence of various concentrations of each compound by matching dose–response curves. […]
(Tetrazolium assays rely on reduction of a dye to a coloured formazan, in cell work by metabolically active cells.)

Experiment [2] relates to HEK293T cell line (human embryonic kidney). Nature of the experiment: MTT cytotoxicity assay, HEK293T normal cells. The protocol:
The cytotoxicity of the four novel heteronuclear Ir^III–Cu^II complexes was assessed against four selected cancer cell lines: A549, MCF7, DU145, WM2664, and one normal HEK293T cell line in vitro (Table 3). IC50 values (concentration of a drug required to inhibit the growth of 50% of the cells) were assessed in two different approaches, i.e., after 24 or 24 + 48 h, using the 3-(4,5-dimethylthiazole)-2,5-diphenyltetrazolium bromide (MTT) method. Cancerous and noncancerous diseases have also been treated with the well-known drug cisplatin in the same concentration range as investigated complexes and are considered as a control. IC50 values have been determined from the plots of cell viability at various concentrations of each compound by matching appropriate dose–response curves and are presented in Table 3.
(§6) (human skin (metastasis), morphology: epithelial, ATCC CRL-1676) were cultured in EMEM (EBSS) + 2mM Glutamine + 1% Non-Essential Amino Acids (NEAA) + 1% Sodium Pyruvate (NaP) + 10% Foetal Bovine Serum (FBS). DU-145 cell line (human prostate carcinoma) and HEK293T cell line (human embryonic kidney) were cultured in minimum essential medium (MEM, Corning) with only 10% fetal bovine serum (FBS). Cultures were incubated at 37 °C under a humidified atmosphere containing 5% CO2.
as §2, §3, §4, §5

Experiment [3] deals with A549 cell line (human lung adenocarcinoma). Nature of the experiment: MTT cytotoxicity assay, A549 cells. The settings on record: for IC50: MTT. How it is done: as §1
(§7) MCF7 cell line (human breast adenocarcinoma, morphology: epithelial-like, ATCC: HTB-22), A549 cell line (human lung adenocarcinoma, morphology: epithelial, ATCC: CCL-185) and HaCaT (human keratinocyte) were cultured in Dulbecco’s Modified Eagle’s Medium (DMEM, Corning) with phenol red, supplemented with 10% fetal bovine serum (FBS) and with 1% streptomycin/penicillin. WM266-4 cell line […]
as §6, §2, §3, §4, §5
(4) In brief, before imaging, A549 and Du145 cells were seeded on microscopic slides at a […]

The subject of experiment [4] is WM2664 cells (WM266-4, human skin metastasis). As to the kind of experiment: MTT cytotoxicity assay, WM2664 cells. The protocol: as §1, §7, §6, §2, §3, §4, §5
Experiment [5] concerns MCF7 cell line (human breast adenocarcinoma). As to the kind of experiment: MTT cytotoxicity assay, MCF7 cells. How it is done:
as §1, §7, §6, §2, §3, §4, §5

Where [6] appears, read: DU145, 72 h (24 + 48 h recovery).
[7] abbreviates: A549, 72 h (24 + 48 h recovery).
Setting [8] is: WM2664, 72 h (24 + 48 h recovery).
[9] abbreviates: MCF7, 72 h (24 + 48 h recovery).

A word on the IC50: it is the concentration that inhibits the measured activity by half.

On to “[Ir(η^5-Cp*)Cl2Pnfx-Cu(phen)](NO3)·1.75(CH3OH)·0.75(H2O) [IrPnfxCu (2)]”, for which the IC50 in experiment [1] (DU145, 24 h treatment) turned out to be 0.00108 ± 1.9e-08 µM; in experiment [1] (setting [6]), 123 ± 5.4 µM; in experiment [2] (24 h treatment) it was 756.8 ± 5.7 µM; in experiment [2] (72 h (24 + 48 h recovery)) it was 857 ± 15.9 µM; in experiment [3] (A549, 24 h treatment) it was 0.0112 ± 7.8e-06 µM; in experiment [3] (setting [7]), 0.0366 ± 2.8e-06 µM. For the same molecule, the IC50 was 0.0099 ± 3.8e-06 µM in experiment [4] (WM2664, 24 h treatment); 155 ± 3.2 µM in experiment [4] (setting [8]); 30 ± 0.7 µM in experiment [5] (MCF7, 24 h treatment); > 1000 µM in experiment [5] (setting [9]).
In the case of “[Ir(η^5-Cp*)Cl2Pcfx-Cu(phen)](NO3)·1.75(CH3OH)·0.75(H2O) [IrPcfxCu (1)]”, the IC50 was determined as 1.28e-06 µM in experiment [1] (DU145, 24 h treatment); 126 ± 3.4 µM in experiment [1] (setting [6]); 787 ± 11.2 µM in experiment [2] (24 h treatment); 887 ± 12.7 µM in experiment [2] (72 h (24 + 48 h recovery)); 0.0355 ± 5.6e-06 µM in experiment [3] (A549, 24 h treatment); 0.000424 µM in experiment [3] (setting [7]). Also, the IC50 was 0.0052 ± 4.1e-06 µM in experiment [4] (WM2664, 24 h treatment); 137 ± 2.2 µM in experiment [4] (setting [8]); 35.3 ± 6.5 µM in experiment [5] (MCF7, 24 h treatment); > 1000 µM in experiment [5] (setting [9]).
Consider `N.N.[Cl][Pt][Cl]` [cisplatin (CDDP), cisplatin, reference compound], for which the 50% inhibitory concentration (IC50) in experiment [1] (DU145, 24 h treatment) was determined as 0.0683 ± 1.3e-06 µM; in experiment [1] (setting [6]), 65.5 ± 3.6 µM; in experiment [2] (24 h treatment), 21 ± 1.8 µM; in experiment [2] (72 h (24 + 48 h recovery)), 10.3 ± 2.1 µM; in experiment [3] (A549, 24 h treatment), 0.057 ± 1.3e-06 µM; in experiment [3] (setting [7]), 71.7 ± 3.7 µM. Further, the concentration for half-maximal inhibition (IC50) came to 2.6 ± 0.6 µM in experiment [4] (WM2664, 24 h treatment); 8.3 ± 0.4 µM in experiment [4] (setting [8]); 51.9 ± 4.6 µM in experiment [5] (MCF7, 24 h treatment); 17.7 ± 8.6 µM in experiment [5] (setting [9]).
On to “[Ir(η^5-Cp*)Cl2Psfx-Cu(phen)] [IrPsfxCu (4)]”, for which the IC50 in experiment [1] (DU145, 24 h treatment) came to 0.0101 ± 2.9e-06 µM; in experiment [1] (setting [6]), 53.6 ± 0.4 µM; in experiment [2] (24 h treatment), 677 ± 9.2 µM; in experiment [2] (72 h (24 + 48 h recovery)), 777 ± 15.3 µM; in experiment [3] (A549, 24 h treatment) it was 0.0181 ± 1.3e-06 µM; in experiment [3] (setting [7]) it was 0.6 ± 0.00029 µM. Besides, the IC50 in experiment [4] (WM2664, 24 h treatment) is 0.0062 ± 2.4e-06 µM; in experiment [4] (setting [8]), 212 ± 10.5 µM; in experiment [5] (MCF7, 24 h treatment) it was 10.5 ± 0.8 µM; in experiment [5] (setting [9]), > 1000 µM. Besides, the “times more effective than the reference drug cisplatin” value in experiment [3] (A549, IC50 comparison) is “more than 100”. The “selectivity index (SI – IC50 (normal cell line)/IC50 (cancer cell line))” value in experiment [3] (A549 cell line) was “approximately 1290”.
With “[Ir(η^5-Cp*)Cl2Plfx-Cu(phen)](NO3)·1.3(H2O)·1.95(CH3OH) [IrPlfxCu (3)]”, the IC50 in experiment [1] (DU145, 24 h treatment) was 0.0142 ± 2.4e-06 µM; in experiment [1] (setting [6]) it was 126 ± 4.4 µM; in experiment [2] (24 h treatment), 776 ± 15.7 µM; in experiment [2] (72 h (24 + 48 h recovery)), 823 ± 12.3 µM; in experiment [3] (A549, 24 h treatment) it was 0.0316 ± 7.6e-06 µM; in experiment [3] (setting [7]), 0.36 ± 0.00022 µM. Further, the IC50 in experiment [4] (WM2664, 24 h treatment) is 0.0101 ± 2.2e-06 µM; in experiment [4] (setting [8]) it was 229 ± 25.9 µM; in experiment [5] (MCF7, 24 h treatment) it was 24.2 ± 7.2 µM; in experiment [5] (setting [9]), > 1000 µM.
On to `O=[N+]([O-])[O-].O=[N+]([O-])[O-].[Cu+2].c1cnc2c(c1)ccc1cccnc12` [Cu(phen)(NO3)2, reference compound], for which the IC50 was found to be 412 ± 10.9 µM in experiment [1] (DU145, 24 h treatment); 659 ± 14.5 µM in experiment [1] (setting [6]); 81.8 ± 8.2 µM in experiment [2] (24 h treatment); 42.4 ± 9.1 µM in experiment [2] (72 h (24 + 48 h recovery)); 537 ± 13.2 µM in experiment [3] (A549, 24 h treatment); 721 ± 15.1 µM in experiment [3] (setting [7]). The IC50 stood at 933 ± 13.6 µM in experiment [4] (WM2664, 24 h treatment); 1110 ± 18.5 µM in experiment [4] (setting [8]); 318 ± 12.2 µM in experiment [5] (MCF7, 24 h treatment); 426 ± 9.9 µM in experiment [5] (setting [9]).
